Columns and labels:
Assay type in all cases: cell-based, human
[1] = system: HOS-143b; assay: Specific lysis at varying E/T ratios with 10 nM EC17, FR-negative cells; conditions: 10 nM EC17, E2-CAR-T cells, 48 hours of co-culture
Experimental: After 24 hours of co-culture, supernatants were harvested to determine tumor cell killing. To study the kinetics of T cell activation and FR correlation in vitro (FIG. 60A, FIG. 60B, FIG. 60C, FIG. 60D, FIG. 60E), co-cultures were carried out in FR+/− cell lines at varying E/T ratios (1:27, 1:9, 1:3, 1:1, 3:1) in the continuous presence of 10 nM EC17. The kinetics of tumor cell killing were quantified after 16 and 48 hours of co-culture. Meanwhile, a portion of the supernatants was taken after 44 hours of co-culture for measurement of IFNg, IL-2 and TNFα. Using Promega's CytoTox 96® LDH assay kit, target cell killing was quantified and expressed as specific lysis (%) which was normalized to basal levels in the absence of EC17 at defined E/T ratios. The LEGENDplex™ human Th1 cytokine panel (BioLegend, San Diego, Calif.) was used to determine CAR-T cell derived cytokines.
Specific lysis (%) was quantified after 16 and 48 hours of co-culture, and Th1 cytokines (IFNg, TNFa) in culture media were measured after 44 hours of co-culture. […] It generally took a longer time (48 hours) and a higher E/T ratio (≥1:1) to see significant activity in the lowest FR-expressing OV90 cells (FIG. 60A). The high FR-expressing KB cells responded very slowly and also required a higher E/T ratio (≥1:3) and longer exposure time to cause significant cell death (FIG. 60B, left plot).

[2] = system: HOS-FRα; assay: CAR-T cell activation markers (CD69, CD137, PD1) after 24 h co-culture with EC17-preloaded targets; conditions: targets preloaded with 100 nM EC17 30 min, E/T 1:1, 24 hours
Experimental: (§1) To study CAR-T cell activation in the presence of FR+ tumor cell targets (FIG. 53), co-culture experiments were initially carried out with MDA-MB-231, THP1-FRβ and HOS-FRα. […] After 24 hours of co-culture, the surface expression of T cell activation markers CD69, CD137 (4-1BB), and PD1 were analyzed by flow cytometry. For T cell exhaustion studies (FIG. 54), FR+(KB, MDA-MB-231, HOS-FRα^fLuc, THP1-FRβ) and FR-negative (HOS-143b^fLuc, THP1-FG12) tumor cell lines were used as targets. Here, target cells were incubated on day 0 without or with 0.1 and 10 nM of EC17 for 30 min at 37° C. and the status of EC17 “pre-loading” was assessed by counterstaining cell-surface EC17 with an anti-FITC antibody (FIG. 61A). Three days later, the surface expression of PD1, LAG3, and TIM3 inhibitor receptors on co-cultured CAR-T cells were analyzed and higher frequencies of double- and triple-positive cells were considered approaching an exhausted phenotype.
(§2) To examine antigen-dependent CAR-T cell activation, MDA-MB-231, THP1-FRβ and HOS-FRα cells were preloaded with 100 nM EC17 over 30 min. […] After 24 hours of co-culture, we measured the surface expression of T cell activation markers CD69, CD137 (4-1BB) and PD1 (FIG. 53). […] Importantly, the mock controls T cells were not activated under these conditions. Some FR+ tumor types (e.g. KB) display a natural resistance to killing by EC17-directed CAR T cells (FIGS. 56, 58, 59, and 60), we studied T cell activation versus exhaustion as a mechanism of EC17 CAM action. Both FR+(KB, MDA-MB-231, HOS-FRα^fLuc, THP1-FRβ) and FR-negative (HOS-143b^fLuc, THP1-FG12) tumor cell lines were chosen for this purpose. HOS-FRα^fLuc expressed ˜5.6× lower level of functional FR than its parent HOS-FRα, and HOS-143b^fLuc was FR-negative similar to HOS-143b (FIG. 59A). […] Three days later, co-cultured CAR-T cells were measured for upregulation and co-expression of T cell activation/exhaustion markers PD1, LAG3 and TIM3. […]

[3] = system: THP1-FRb; assay: as above; conditions: targets preloaded with 100 nM EC17 30 min, E/T 1:1, 24 hours
Experimental: as §1, §2

[4] = system: MDA-MB-231; assay: as above; conditions: targets preloaded with 100 nM EC17 30 min, E/T 1:1, 24 hours
Experimental: as §1, §2

SMILES: NC1=NC2N=CC(CNc3ccc(C(=O)N[C@@H](CCC(=O)NCCNC(=S)Nc4ccc(-c5c6ccc(=O)cc-6oc6cc(O)ccc56)c(C(=O)O)c4)C(=O)O)cc3)=NC2C(=O)N1 (stereo partly shown) [EC17, FA-(g)-ethylenediamine-FITC]
- specific lysis of FR-negative cells [1]: essentially unharmed
- CAR-T cell activation (CD69, CD137, PD1) [2]: strong activators of our CAR-T cells
- CAR-T cell activation (CD69, CD137, PD1) [3]: did trigger CAR-T cell activation, but at lower levels
- CAR-T cell activation (CD69, CD137, PD1) [4]: strong activators of our CAR-T cells

Source: patent US11311576B2, “Methods of use for CAR T cells” (Seattle Children's Hospital, priority 2018, dated 2022)
